These results are taken from ChEMBL document CHEMBL1201862, “PubChem BioAssay data set” (2004).

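96-well plates; 48 h exposure; 5 concentrations. Endpoints by linear interpolation between flanking doses. Not reached: highest tested concentration assigned. At the GI50, growth is halved.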 Calls of active or inactive are those of the source. Rule as the data show it: active = GI50 up to about 1.1 µM and inactive = higher. Where only a bound is given, the exact number is not on record here.

Among the test systems are SR; HCT-116; A549; RPMI-8226; EKVX; T47D; UACC-257; MDA-MB-435; NCI-H460; MDA-N; SNB-19; SNB-75; NCI-H226; U-251; UACC-62; SK-MEL-28; LOX IMVI; IGROV-1; CCRF-CEM; BT-549.
What all share (experiment): DTP human tumour cell line panel, 48 h

A word on the GI50: it is the concentration at which growth is held to half of that of the control. `O=C(C1=CCC2(CC1)OCCO2)N(Cc1ccccc1)c1ccccc1I`: the GI50 with SR is 12.8 µM (inactive); in the experiment with HCT-116, 14.8 µM (inactive); in the experiment with A549 it was 28 µM (inactive); in the experiment with RPMI-8226 it was 24.4 µM (inactive); in the experiment on EKVX it was 16.4 µM (inactive); in the experiment with T47D, 18.4 µM (inactive). Moreover, the GI50 with UACC-257 is 19.2 µM (inactive); in the experiment with MDA-MB-435, 19.7 µM (inactive); in the experiment on NCI-H460, 18.9 µM (inactive); in the experiment with MDA-N it was 29 µM (inactive); with SNB-19, 18.9 µM (inactive); with SNB-75, 14.1 µM (inactive). Further, the GI50 is 19.9 µM (inactive) with NCI-H226; 19.9 µM (inactive) with U-251; 13.5 µM (inactive) in the experiment on UACC-62; 21.2 µM (inactive) with SK-MEL-28; 21.2 µM (inactive) in the experiment with LOX IMVI.
Regarding `CCC12CN(C(=O)OC)C3C(Br)C1CCC(=O)C32` (stereo unspecified), the GI50 in the experiment on SR, in the experiment with A549, with RPMI-8226, in the experiment on EKVX, in the experiment on T47D and in the experiment with UACC-257 was > 100 µM (inactive) throughout. Moreover, the GI50 in the experiment on MDA-MB-435, with IGROV-1, in the experiment with NCI-H460, with MDA-N, in the experiment with SNB-19 and in the experiment with SNB-75 was > 100 µM (inactive) each time. Moreover, the GI50 with NCI-H226, with U-251, with UACC-62, in the experiment with SK-MEL-28, with CCRF-CEM and in the experiment with LOX IMVI was > 100 µM (inactive) each time.
Take `Clc1ccc(C2=NNC(c3cccc(Cl)c3)C2)cc1` (stereo unspecified): the GI50 in the experiment with SR was 41.9 µM (inactive); with HCT-116 it was 26.7 µM (inactive); in the experiment on A549 it was 23.2 µM (inactive); in the experiment with RPMI-8226, 17.1 µM (inactive); in the experiment with EKVX, 23.4 µM (inactive); with T47D it was 44.6 µM (inactive). Besides, the GI50 with UACC-257 is 32.3 µM (inactive); with MDA-MB-435, 17.9 µM (inactive); in the experiment on IGROV-1, 0.344 µM (active); in the experiment with NCI-H460, 28.5 µM (inactive); in the experiment on MDA-N it was 21.1 µM (inactive); with SNB-19 it was 34.4 µM (inactive). The GI50 is 26.8 µM (inactive) with SNB-75; 35.6 µM (inactive) in the experiment with NCI-H226; 16.5 µM (inactive) in the experiment with U-251; 28.8 µM (inactive) in the experiment with UACC-62; 29 µM (inactive) with CCRF-CEM; 16 µM (inactive) with LOX IMVI.
With `CC#CCCN(CC#N)Cc1ccccc1`, the GI50 in the experiment on SR, in the experiment with HCT-116, in the experiment on A549, in the experiment with RPMI-8226, in the experiment on EKVX and with T47D was > 100 µM (inactive) throughout. Also, the GI50 with UACC-257, with MDA-MB-435, in the experiment with IGROV-1, in the experiment with NCI-H460, with MDA-N and in the experiment with SNB-19 was > 100 µM (inactive) each time. Further, the GI50 with SNB-75 was > 100 µM (inactive); in the experiment with NCI-H226, > 100 µM (inactive); in the experiment on U-251, > 100 µM (inactive); in the experiment on UACC-62 it was 18.1 µM (inactive); with SK-MEL-28 it was > 100 µM (inactive); in the experiment with CCRF-CEM, > 100 µM (inactive). Moreover, in the experiment with LOX IMVI, the GI50 is > 100 µM (inactive).
As for `Nc1nc(N)c2ncn(-c3ccc(Cl)cc3)c2n1`, the GI50 is 37.9 µM (inactive) with HCT-116; 37 µM (inactive) in the experiment with A549; 10.1 µM (inactive) in the experiment on EKVX; 25.5 µM (inactive) with T47D; > 100 µM (inactive) with UACC-257; 87.3 µM (inactive) in the experiment with MDA-MB-435. The GI50 was 6.97 µM (inactive) with IGROV-1; 89.1 µM (inactive) with MDA-N; 10.1 µM (inactive) in the experiment with SNB-75; 39.1 µM (inactive) in the experiment on NCI-H226; 49.1 µM (inactive) in the experiment on U-251; 29.7 µM (inactive) in the experiment with UACC-62. Moreover, the GI50 is > 100 µM (inactive) with SK-MEL-28, 20.9 µM (inactive) in the experiment on CCRF-CEM and 36.6 µM (inactive) with LOX IMVI.
As for `CCOc1ccc(NC(=O)C(=O)NO)cc1`, the GI50 was 55.3 µM (inactive) with SR; > 100 µM (inactive) in the experiment on HCT-116; > 100 µM (inactive) in the experiment with A549; > 100 µM (inactive) in the experiment with RPMI-8226; > 100 µM (inactive) with EKVX; > 100 µM (inactive) with UACC-257. The GI50 with IGROV-1, with NCI-H460, with SNB-19, with SNB-75, in the experiment on NCI-H226 and in the experiment on U-251 was > 100 µM (inactive) throughout. Also, the GI50 in the experiment with UACC-62, in the experiment with SK-MEL-28, in the experiment with CCRF-CEM and in the experiment on LOX IMVI was > 100 µM (inactive) throughout.
For the compound `CC(C)(C)OC(=O)N(CCCCNC(=O)C(F)(F)F)CCCNC(=O)C(F)(F)F`, the GI50 with SR, with HCT-116, in the experiment with A549, in the experiment with BT-549, in the experiment with RPMI-8226 and in the experiment with EKVX was > 100 µM (inactive) each time. In addition, the GI50 in the experiment with T47D, in the experiment on UACC-257, in the experiment on MDA-MB-435, in the experiment with IGROV-1, in the experiment on NCI-H460 and with SNB-19 was > 100 µM (inactive) throughout. Further, the GI50 with SNB-75, in the experiment with NCI-H226, with U-251, in the experiment on UACC-62, with SK-MEL-28 and in the experiment on CCRF-CEM was > 100 µM (inactive) in each case.
For `COc1ccc2c(c1)CC[C@@H]1[C@@H]2CC[C@]2(C)C(=O)/C(=C/c3ccc(N(C)C)cc3)C[C@@H]12`, the GI50 is 44 µM (inactive) with HCT-116; 41.9 µM (inactive) in the experiment with A549; 29.1 µM (inactive) in the experiment on BT-549; > 100 µM (inactive) with RPMI-8226; 63.5 µM (inactive) in the experiment with EKVX; 44.1 µM (inactive) in the experiment with T47D. Further, the GI50 was > 100 µM (inactive) in the experiment with MDA-MB-435; 39.8 µM (inactive) in the experiment on NCI-H460; 35.6 µM (inactive) with SNB-19; 24.2 µM (inactive) in the experiment with SNB-75; 46.1 µM (inactive) with U-251; 32.6 µM (inactive) in the experiment with UACC-62.
Take `CNC(=O)N1CN(c2ccccc2)C2(CCN(CCCC(=O)c3ccc(F)cc3)CC2)C1=O`: the GI50 in the experiment with SR was 21.9 µM (inactive); in the experiment with HCT-116 it was 7.59 µM (inactive); in the experiment on A549, 45.1 µM (inactive); in the experiment on RPMI-8226, 14.1 µM (inactive); in the experiment with EKVX, 12.8 µM (inactive); with T47D, 4.98 µM (inactive). The GI50 in the experiment with UACC-257 is 7.64 µM (inactive); in the experiment on IGROV-1 it was 19.5 µM (inactive); in the experiment on SNB-19 it was 17.3 µM (inactive); in the experiment with SNB-75, 29.3 µM (inactive); with NCI-H226, 25.5 µM (inactive); in the experiment with U-251, 21.5 µM (inactive). The GI50 in the experiment on UACC-62 was 18.7 µM (inactive); in the experiment with SK-MEL-28, 17.2 µM (inactive); in the experiment on CCRF-CEM, 13.9 µM (inactive); in the experiment on LOX IMVI, 17.1 µM (inactive).
Regarding `CS/C(C)=N/OC(=O)NCCCCNc1ccc(N=[N+]=[N-])cc1`, the GI50 in the experiment with SR was 37.8 µM (inactive); in the experiment with HCT-116 it was 34.2 µM (inactive); with A549 it was 30.4 µM (inactive); with RPMI-8226 it was 18.4 µM (inactive); in the experiment on EKVX, 45.4 µM (inactive); with UACC-257, 30.9 µM (inactive). In addition, the GI50 with IGROV-1 was 87.3 µM (inactive); in the experiment with NCI-H460, 35 µM (inactive); in the experiment with SNB-19, 66.4 µM (inactive); in the experiment with SNB-75 it was 52.4 µM (inactive); with NCI-H226, 21 µM (inactive); with U-251, 30.6 µM (inactive). The GI50 is 21.8 µM (inactive) in the experiment on UACC-62, 49.7 µM (inactive) with SK-MEL-28, 24.2 µM (inactive) in the experiment with CCRF-CEM and 26.7 µM (inactive) in the experiment with LOX IMVI.
For `O=C(c1ccccc1)c1ccc(COc2ccc(C(c3c(O)c4ccccc4oc3=O)c3c(O)c4ccccc4oc3=O)cc2)cc1`, the GI50 in the experiment with SR was 35.9 µM (inactive); with HCT-116, 33.3 µM (inactive); in the experiment with A549 it was 26.2 µM (inactive); with RPMI-8226, 12.5 µM (inactive); in the experiment with EKVX, 19.8 µM (inactive); in the experiment on T47D, 20.5 µM (inactive). The GI50 is 19.4 µM (inactive) in the experiment on UACC-257; 20.2 µM (inactive) in the experiment on MDA-MB-435; 13.5 µM (inactive) with IGROV-1; 19.9 µM (inactive) in the experiment with NCI-H460; 26.5 µM (inactive) with MDA-N; 23.4 µM (inactive) in the experiment on SNB-19. Further, the GI50 was 18.5 µM (inactive) in the experiment with SNB-75; 0.173 µM (active) in the experiment on NCI-H226; 89.3 µM (inactive) with U-251; 14 µM (inactive) in the experiment on UACC-62; 17.9 µM (inactive) in the experiment with SK-MEL-28; 3.84 µM (inactive) in the experiment with CCRF-CEM. Moreover, the GI50 in the experiment with LOX IMVI is 23.9 µM (inactive).
Consider `C1COC2SC3=C(SC(=C4SC5=C(SCCS5)S4)S3)SC2O1` (stereo unspecified), for which the GI50 is 3.68 µM (inactive) in the experiment with SR; > 100 µM (inactive) in the experiment with HCT-116; > 100 µM (inactive) with A549; > 100 µM (inactive) with BT-549; > 100 µM (inactive) in the experiment with EKVX; 60.4 µM (inactive) in the experiment on T47D. The GI50 in the experiment with UACC-257 was > 100 µM (inactive); in the experiment on MDA-MB-435, 4.07 µM (inactive); in the experiment with IGROV-1 it was 77.6 µM (inactive); in the experiment on NCI-H460 it was > 100 µM (inactive); with SNB-19, > 100 µM (inactive); with SNB-75, 71.1 µM (inactive). Besides, the GI50 is > 100 µM (inactive) with NCI-H226; > 100 µM (inactive) in the experiment on U-251; 22 µM (inactive) in the experiment with UACC-62; > 100 µM (inactive) in the experiment with SK-MEL-28; > 100 µM (inactive) with CCRF-CEM.
